Source: patent US20210052598A1, “COMPOSITIONS AND METHODS FOR TREATING CANCER” (Beth Israel Deaconess Medical Center, Inc., priority 2018, published 2021)
Entries after “also recorded” stand apart in the source; their conditions may differ. Where a SMILES comes first, the peptide text is derived from it. The star is where a group is joined. Cbz = O=C(OCc1ccccc1)*

Legend:
IDH1 and IDH2 [1] = assay: Immunoblot of IDH1 and IDH2 after MG132 or MLN4924, RWPE1 cells; assay type: cell-based; details: 10 μM for 8 hours
Method: RWPE1 cells were incubated with 10 μM MG132 or MLN4924 for 8 hours, followed by immunoblot analysis of IDH1 and IDH2. FIG. 16B are immunoblots showing that IDH1 specifically interacts with Cullin 1 in cells. Immunoblot analysis of immunoprecipitates (IP) and whole cell lysates (WCL) derived from HEK293 cells transfected with Flag-IDH1 and the indicated Myc-tagged Cullins for 48 hours. FIG. 16C are immunoblots showing that IDH1 specifically interacts with two F-box proteins, Skp2, and to a lesser extent, Fbw4, in cells. Immunoblot analysis of IP and WCL derived from HEK293 cells transfected with Flag-IDH1 and the indicated CMV-GST-tagged F-box proteins for 48 hours. FIG. 16D are immunoblots showing depletion of SKP2 in HeLa cells leads to accumulated IDH1. […] The labeled glycolytic intermediates were measured using HPLC-MS. n=3, * p<0.05, ** p<0.01, ***p<0.001. […] The labeled TCA cycle intermediates were measured using HPLC-MS. n=3, * p<0.05, ** p<0.01, *** p<0.001.
(§1) Cells were lysed in EBC buffer (50 mM Tris pH 7.5, 120 mM NaCl, 0.5% NP-40) supplemented with protease inhibitors (cOmplete Mini, Roche) and phosphatase inhibitors (phosphatase inhibitor cocktail set I and II, Calbiochem). The protein concentrations of the lysates were measured using the Bio-Rad protein assay reagent on a Beckman Coulter DU-800 spectrophotometer. […]

HAP1 cells [2] = assay: Seahorse XF24 oxygen consumption rate (OCR) analysis, HAP1 cells; assay type: cell-based, human
Method: (§2) LNCaP cells were treated with 0, 1, 3, 10 or 30 μM SKPin C1 for 24 hours, harvested for immunoblot analysis of indicated proteins. […] 22Rv1 cells were treated with 10 μM SKPin C1 for 24 hours, harvested for fraction of cytoplasm (C), mitochondria (M), and nuclei (N), followed by immunoblot analysis of indicated proteins. FIG. 11C is a graph showing depletion of endogenous ID111 or IDH2 abolishes the effect of SKPin C1 on OCR. HAP1-IDH1^−/−, IDH2^−/− and parental cells were treated with 3 μM SKPin C1 for 24 hours, followed by OCR analysis by Seahorse XF 24 analyzer. The concentration of oligomycin, FCCP and antimycin A are 1 μM, 0.6 μM and 3 μM, respectively (mean±s.e.m, n=3). […] HAP1-Skp2^+/+ and Skp2^−/− cells were treated with indicated SKPin C1 for 24 hours, followed by immunoblot analysis for indicated proteins. […] Statistical analysis, ** p<0.01. […] Statistical analysis, * p<0.05, ** p<0.01. […] HAP1-Skp2^+/+ and Skp2^−/− cells were treated with 1 μM SKPin C1 for 24 hours, followed by ECAR analysis by Seahorse XF 24 analyzer. […] HAP1-Skp2^+/+ and Skp2^−/− cells were treated with 1 μM SKPin C1 for 24 hours, followed by OCR analysis by Seahorse XF 24 analyzer. […]
(§3) Oxygen consumption rate (OCR) and extracellular acidification rate (ECAR) were measured using Seahorse XF24 analyzer (Boston, Mass., USA). […]

HAP1 cells [3] = assay: Seahorse XF24 extracellular acidification rate (ECAR) analysis, HAP1 cells; assay type: cell-based, human; details: 1 μM for 24 hours
Method: as §2, §3

22-Rv1 cells = assay: Colony formation assay, 22-Rv1 cells; assay type: cell-based, human; details: 22-Rv1, 1500 cell/well, 0, 0.1, 0.3, or 1 μM for 7 days, fresh media another 3 weeks
Method: (§4) 22-Rv1 cells were treated with 0, 1, 3, 10, or 30 μM SKPin C1 for 24 hours, and then harvested for immunoblot analysis. […] LNCaP and 22-Rv1 cells were plated in 6-well plate (1500 cell/well), treated with 0, 0.1, 0.3, or 1 μM Skin C1 for 7 days, and changed to fresh media for another 3 weeks. […] HAP1-IDH1^−/−, HAP1-IDH2^−/− and parental cells were treated with 3 μM SKPin C1 for 24 hours, followed by OCR analysis by Seahorse XF 24 analyzer. * p<0.05.
(§5) Cells were cultured in 10% FBS containing DMEM or RPMI-1640 media before plating into 6-well plate at 10,000 cells (3,000 cells for HeLa) per well. Ten days later, cells were fixed with 10% acetic acid/10% methanol for 10 min, stained with 0.4% crystal violet/20% ethanol, followed by counting the colony numbers. For soft agar assays, cells were seeded in 0.4% low-melting-point agarose in DMEM or RPMI-1640 with 10% FBS at 100,000 per well (30,000 cells for HeLa), layered onto 0.8% agarose in DMEM or RPMI-1640 with 10% FBS. The plates were kept in the cell culture incubator for 3-4 weeks after which the cells were stained with iodonitrotetrazolium chloride and colonies were counted.

IDH1 and IDH2 [4] = assay: Immunoblot of IDH1 and IDH2 after SKPin C1 treatment, 22-Rv1 cells; assay type: cell-based, human; details: 22-Rv1 cells, 0, 1, 3, 10, or 30 μM for 24 hours
Method: as §4
HeLa and HCT116 cells were used for synchronization. HeLa cells, which have low endogenous Skp2 activity, were used for ectopic expression-based degradation assays. HEK293 cell line was used for ubiquitination assays and co-IP assays to define the interaction between two ectopically expressed proteins, which is the most frequently used cell line for this type of experiment. Human prostate cancer cells, DU145, PC3, LNCaP, VCaP, 22Rv1 and C4-2 were used for compared endogenous Skp2 and IDH1 levels, as well as Skp2 knockdown and Skp2 overexpression. […]
as §1

IDH1 and IDH2 [5] = assay: Immunoblot of IDH1 and IDH2 after SKPin C1 treatment, LNCaP cells; assay type: cell-based, human; details: LNCaP cells, 0, 1, 3, 10 or 30 μM for 24 hours
Method: (§6) LNCaP cells were treated with 0, 1, 3, 10 or 30 μM SKPin C1 for 24 hours, harvested for immunoblot analysis of indicated proteins. […] 22Rv1 cells were treated with 10 μM SKPin C1 for 24 hours, harvested for fraction of cytoplasm (C), mitochondria (M), and nuclei (N), followed by immunoblot analysis of indicated proteins. FIG. 11C is a graph showing depletion of endogenous ID111 or IDH2 abolishes the effect of SKPin C1 on OCR. HAP1-IDH1^−/−, IDH2^−/− and parental cells were treated with 3 μM SKPin C1 for 24 hours, followed by OCR analysis by Seahorse XF 24 analyzer. The concentration of oligomycin, FCCP and antimycin A are 1 μM, 0.6 μM and 3 μM, respectively (mean±s.e.m, n=3). […] HAP1-Skp2^+/+ and Skp2^−/− cells were treated with indicated SKPin C1 for 24 hours, followed by immunoblot analysis for indicated proteins. […] Statistical analysis, ** p<0.01. […] Statistical analysis, * p<0.05, ** p<0.01. […]
as §1

IDH1 and IDH2 [6] = assay: Immunoblot of IDH1 and IDH2 in HAP1-Skp2+/+ and Skp2-/- cells; assay type: cell-based, human; details: 24 hours
Method: as §6, §1

IDH1 and IDH2 [7] = assay: Fractionation of cytoplasm, mitochondria and nuclei with immunoblot, 22Rv1 cells; assay type: cell-based, human; details: 10 μM for 24 hours
Method: LNCaP cells were treated with 0, 1, 3, 10 or 30 μM SKPin C1 for 24 hours, harvested for immunoblot analysis of indicated proteins. […] 22Rv1 cells were treated with 10 μM SKPin C1 for 24 hours, harvested for fraction of cytoplasm (C), mitochondria (M), and nuclei (N), followed by immunoblot analysis of indicated proteins. FIG. 11C is a graph showing depletion of endogenous ID111 or IDH2 abolishes the effect of SKPin C1 on OCR. HAP1-IDH1^−/−, IDH2^−/− and parental cells were treated with 3 μM SKPin C1 for 24 hours, followed by OCR analysis by Seahorse XF 24 analyzer. The concentration of oligomycin, FCCP and antimycin A are 1 μM, 0.6 μM and 3 μM, respectively (mean±s.e.m, n=3). […] HAP1-Skp2^+/+ and Skp2^−/− cells were treated with indicated SKPin C1 for 24 hours, followed by immunoblot analysis for indicated proteins. […] Statistical analysis, ** p<0.01. […] Statistical analysis, * p<0.05, ** p<0.01. […] HAP1-Skp2^+/+ and Skp2^−/− cells were treated with 1 μM SKPin C1 for 24 hours, followed by ECAR analysis by Seahorse XF 24 analyzer. […] HAP1-Skp2^+/+ and Skp2^−/− cells were treated with 1 μM SKPin C1 for 24 hours, followed by OCR analysis by Seahorse XF 24 analyzer. The concentration of oligomycin, FCCP and antimycin A are 1 μM, 0.6 μM and 3 μM, respectively (mean±s.e.m, n=3, ** p<0.01, *** p<0.001).
Cells were harvested and subjected to fractionation of cytoplasm (C), mitochondria (M), and nuclei (N) using Cell Fractionation kit (ab109719, Abcam). All fractions and the whole cell lysate (WCL) were subjected to immunoblot analysis for the indicated proteins, with tubulin, citrate synthase, and Histone H3 as markers of cytoplasm, mitochondria, and nucleus, respectively.

LNCaP cells = assay: Colony formation assay, LNCaP cells; assay type: cell-based, human; details: 1500 cell/well, 0, 0.1, 0.3, or 1 μM for 7 days, fresh media another 3 weeks
Method: as §4, §5

Row | SMILES | IDH1 and IDH2 protein abundance (immunoblot) (IDH1 and IDH2 [1]) | Effect on OCR in HAP1-Skp2+/+ and Skp2-/- cells (HAP1 cells [2]; 1 μM for 24 hours) | Effect on OCR in HAP1-IDH1-/-, HAP1-IDH2-/- and parental cells (HAP1 cells [2]; 3 μM for 24 hours) | Effect on ECAR in HAP1-Skp2+/+ and Skp2-/- cells (HAP1 cells [3]) | Colony growth (22-Rv1 cells) | IDH1 and IDH2 protein abundance (immunoblot) (IDH1 and IDH2 [4]) | IDH1 and IDH2 protein abundance (immunoblot) (IDH1 and IDH2 [5]) | Effect on IDH1 and IDH2 in HAP1-Skp2+/+ and Skp2-/- cells (IDH1 and IDH2 [6]) | IDH1 localization after treatment (IDH1 and IDH2 [7]) | IDH2 localization after treatment (IDH1 and IDH2 [7]) | IDH1 and IDH2 protein abundance in cell fractions (IDH1 and IDH2 [7]; cytoplasm/mitochondria/nuclei fractions) | Colony growth (LNCaP cells)
1 | CC(C)C[C@@H](C=O)NC(=O)[C@H](CC(C)C)NC(=O)[C@H](CC(C)C)NC(=O)OCc1ccccc1 [MG132] (Cbz-Leu-Leu-Leu-aldehyde) | elevated; also recorded: accumulation of IDH1 and IDH2 |  |  |  |  |  |  |  |  |  |  | 
2 | NS(=O)(=O)OC[C@@H]1C[C@@H](n2ccc3c(N[C@H]4CCc5ccccc54)ncnc32)C[C@@H]1O [MLN4924] | elevated; also recorded: accumulation of IDH1 and IDH2 |  |  |  |  |  |  |  |  |  |  | 
3 | O=C(O)COc1ccc(Br)cc1/C=C1\SC(=S)N(Cc2cccnc2)C1=O [SKPin C1] |  | depletion of Skp2 abolishes the effect of SKPin C1 on OCR | depletion of endogenous IDH1 or IDH2 abolishes the effects of SKPin C1 on OCR | depletion of Skp2 abolishes the effect of SKPin C1 on ECAR | blocks the colony growth | significantly stabilized both IDH1 and IDH2; also recorded: robust accumulation of IDH1 and IDH2 | significantly stabilized both IDH1 and IDH2; also recorded: accumulated protein abundance of IDH1 and IDH2 | depletion of Skp2 abolishes the effect of SKPin C1 on IDH1 and IDH2 | mainly localized in the cytoplasmic fraction regardless of SKPin C1 treatment | detected in the cytoplasmic fraction | accumulated protein abundance of IDH1 and IDH2 in cytoplasm | blocks the colony growth
